In US20240132484A1, “BROAD SPECTRUM ANTIVIRAL COMPOUNDS TARGETING THE SKI COMPLEX” (priority 2020, published 2024):
Values joined by “and” are separate entries in the source; they are usually repeats but may differ in a detail not shown here. Equal values may be shown once. Read-outs that look alike come from different tables or passages of the source.

What was measured:
SARS2 = assay type: cell-based, SARS-CoV-2

CN(C)CCN(Cc1ccccc1)Cc1cc(C#CCO)cs1 [SILCS5]
Percentage Infection Relative to DMSO Control, Average, Mean (SARS2): 75.63% and 81.28% and 98.58% and 104.84% and 111.97%
Percentage Inhibition Average 1 μM (SARS2; SARS2, 1 μM): −11.97%
Screening data (Relative infection to DMSO controls) Average 1 μM (SARS2; SARS2, 1 μM, 100=DMSO control): 111.97
Percentage Inhibition Average 5 μM (SARS2; SARS2, 5 μM): −4.84%
Screening data (Relative infection to DMSO controls) Average 5 μM (SARS2; SARS2, 5 μM, 100=DMSO control): 104.84
Percentage Inhibition Average 10 μM (SARS2; SARS2, 10 μM): 1.42%
Screening data (Relative infection to DMSO controls) Average 10 μM (SARS2; SARS2, 10 μM, 100=DMSO control): 98.58
Percentage Inhibition Average 25 μM (SARS2; SARS2, 25 μM): 18.72%
Screening data (Relative infection to DMSO controls) Average 25 μM (SARS2; SARS2, 25 μM, 100=DMSO control): 81.28
Percentage Inhibition Average 50 μM (SARS2; SARS2, 50 μM): 24.37%
Screening data (Relative infection to DMSO controls) Average 50 μM (SARS2; SARS2, 50 μM, 100=DMSO control): 75.63
Average (relative infection to DMSO over the 5 tested concentrations) (SARS2; SARS2, average over 1 to 50 uM, 100=DMSO control): 94.46
Relative cell count to DMSO controls, Average 1 μM (cells (nuclei count); 1 μM, toxicity data, 100=DMSO control): 113.75
Relative cell count to DMSO controls, Average 5 μM (cells (nuclei count); 5 μM, toxicity data, 100=DMSO control): 108.79
Relative cell count to DMSO controls, Average 10 μM (cells (nuclei count); 10 μM, toxicity data, 100=DMSO control): 102.76
Relative cell count to DMSO controls, Average 25 μM (cells (nuclei count); 25 μM, toxicity data, 100=DMSO control): 105.3
Relative cell count to DMSO controls, Average 50 μM (cells (nuclei count); 50 μM, toxicity data, 100=DMSO control): 75.59
Toxicity Data, Average, Mean (relative to DMSO control) (cells (nuclei count); Average of Exp 1-3, 1 uM): 113.75%
Toxicity Data, Average, Mean (relative to DMSO control) (cells (nuclei count); Average of Exp 1-3, 5 uM): 108.79%
Toxicity Data, Average, Mean (relative to DMSO control) (cells (nuclei count); Average of Exp 1-3, 10 uM): 102.76%
Toxicity Data, Average, Mean (relative to DMSO control) (cells (nuclei count); Average of Exp 1-3, 25 uM): 105.30%
Toxicity Data, Average, Mean (relative to DMSO control) (cells (nuclei count); Average of Exp 1-3, 50 uM): 75.59%
Relative cell count to DMSO controls, Average (for correlation analysis) (cells (nuclei count); average value over the 5 tested concentrations (1 to 50 uM)): 101.24
